Values quoted from earlier work, collected in article PMC9010257 (Clinical and Translational Science, 2022).

System: TNAP

Row | Structure (SMILES) | inhibitory activity | specificity for TNAP
1 | c1ccc([C@H]2CN3CCSC3=N2)cc1 [levamisole] | weak inhibitory activity | not specific for TNAP
2 | Cn1c(=O)c2[nH]cnc2n(C)c1=O [theophylline] | weak inhibitory activity | not specific for TNAP
